The text below walks through data of ChEMBL document CHEMBL1781953, “Synthesis and antimycobacterial activity of 5-formylaminopyrimidines; analogs of antibacterial purines” (Bioorg Med Chem Lett, 2009).

≈ marks a conversion by molar mass, not a printed value.

Series [1] has as its system Escherichia coli. The series can be described thus: Antibacterial activity against Escherichia coli. Format: functional.
The subject of series [2] is Staphylococcus aureus. In words: Antibacterial activity against Staphylococcus aureus. It is filed as functional.
Series [3] concerns Mycobacterium tuberculosis. In words: Antimycobacterial activity against Mycobacterium tuberculosis H37Rv ATCC 27294 by microplate alamar blue assay. Format: functional, organism-based. (In general: Alamar Blue is a resazurin reagent that responds to reducing activity.)
Series [4] deals with Vero. The series can be described thus: Cytotoxicity against african green monkey Vero cells after 72 hrs by MTT assay. The note with it: Chlorocebus sabaeus. It is filed as cell-based. In general terms: Tetrazolium assays rely on reduction of a dye to a coloured formazan, in cell work by metabolically active cells.
Series [5] is described as follows: Cytotoxicity against african green monkey Vero cells assessed as cell viability at 40 ug/mL after 72 hrs by MTT assay. It is filed as cell-based. The conditions noted are these: chlorocebus sabaeus, read-out: Activity.

Turning to `COc1ccc(CNc2nc(F)nc(-c3ccco3)c2NC=O)cc1`, the MIC in series [1] and in series [2] was greater than 64 µg/mL each time.

In the case of `COc1ccc(CNc2nc(C(F)(F)F)nc(-c3ccco3)c2NC=O)cc1`, in series [3], inhibition was half-maximal at 0.26 µg/mL (≈ 0.663 µM) (IC50) and it took 0.58 µg/mL (≈ 1.48 µM) to reach the 90% level (IC90).

For the compound `COc1ccc(CNc2nc([N+](=O)[O-])nc(-c3ccco3)c2NC=O)cc1`, the MIC in series [1] and in series [2] was greater than 64 µg/mL in each case. The compound further showed an EC50 in series [4] greater than 40 µg/mL. In series [5], the viability at 72 h, 40 ug/mL amounted to 62%.

Take `COc1ccc(CNc2ncnc(-c3ccco3)c2NC=O)cc1`: the MIC in series [1] and in series [2] was greater than 64 µg/mL throughout.

With `COc1ccc(CNc2nc(Cl)nc(-c3ccco3)c2NC=O)cc1`, the minimum inhibitory concentration (MIC) in series [1] and in series [2] was greater than 64 µg/mL in each case.

GENTAMICIN registered a minimal inhibitory concentration (MIC) in series [2] of 0.1 µg/mL.

Usually MIC stands for the smallest concentration in the dilution series that meets the test's criterion for growth inhibition. For orientation: IC50 means the concentration that inhibits the measured activity by half. For orientation: IC90 means the point of the concentration-response curve where the effect stands at 90%. Broadly, the EC50 is the midpoint of the concentration-response curve.
